The values below come from patent US20230079045A1 (priority 2019, published 2023).

Format in all cases: cell-based, influenza virus
Assay [1] deals with IFVA/Mal/302/54. Briefly: cytopathic effect (CPE) antiviral test in MDCK cells, IFVA/Mal/302/54. The settings on record: unidentified influenza virus, MDCK, 120 h, read-out: EC50(IFVA/Mal/302/54), MDCK cells, CPE method, CCK-8 cell viability, 5 days.
Assay [2] relates to IFVA/Weiss/43. Briefly: cytopathic effect (CPE) antiviral test in MDCK cells, IFVA/Weiss/43. The settings on record: unidentified influenza virus, MDCK, 120 h, read-out: EC50(IFVA/Weiss/43), MDCK cells, CPE method, CCK-8 cell viability, 5 days. Background: Cytopathic effects are the visible damage that an infection or toxin causes in cultured cells.
The subject of assay [3] is IFV A/PR/8/34. Briefly: cytopathic effect (CPE) antiviral test in MDCK cells, IFV A/PR/8/34. The settings on record: unidentified influenza virus, PR/8, MDCK, 120 h, read-out: EC50(IFV A/PR/8/34).

Molecules are shown by their SMILES.

As for `O=C(Nc1ccc2nc(-c3ccnc(C(=O)N4CCN(C(c5ccccc5)c5nnn(C(F)F)n5)CC4)c3)oc2c1)C1CC1` (racemic) [Compound 104, (R/S)—N-(2-(2-(4-((2-(difluoromethyl)-2H-tetrazol-5-yl)(phenyl)methyl)piperazine-1-carbonyl)pyridin-4-yl)benzo[d]oxazol-6-yl)cyclopropanecarboxamide], the EC50 in assay [1] is 16 nM; in assay [2] it was 12 nM; in assay [3] it was 59 nM.
Taken in the same sequence, the figures for `O=C(Nc1ccc2oc(-c3ccnc(C(=O)N4CCN(C(c5ccccc5)c5nnn(C(F)F)n5)CC4)c3)nc2c1)C1CCC1` (racemic) [Compound 67, (R/S)—N-(2-(2-(4-((2-(difluoromethyl)-2H-tetrazol-5-yl)(phenyl)methyl)piperazine-1-carbonyl)pyridin-4-yl)benzo[d]oxazol-5-yl)cyclobutanecarboxamide] were 21 nM, 12 nM and 17 nM.
As to `CC(=O)Nc1ccc2oc(-c3ccnc(C(=O)C4CCN(C(c5ccccc5)c5nnn(C(F)F)n5)CC4)c3)nc2c1` (racemic) [Compound 42, (R/S)—N-(2-(2-(1-((2-(difluoromethyl)-2H-tetrazol-5-yl)(phenyl)methyl)piperidine-4-carbonyl)pyridin-4-yl)benzo[d]oxazol-5-yl)acetamide], the EC50 in assay [1] came to 10 nM; in assay [2], 20 nM; in assay [3], 20 nM.
On to `O=C(Nc1ccc2nc(-c3ccnc(C(=O)N4CCN(C(c5ccccc5)c5nnn(C(F)F)n5)CC4)c3)oc2c1)[C@@H]1CC1(F)F` (mixture of isomers) [Compound 103, (S)—N-(2-(2-(4-((R/S)-(2-(difluoromethyl)-2H-tetrazol-5-yl)(phenyl)methyl)piperazine-1-carbonyl)pyridin-4-yl)benzo[d]oxazol-6-yl)-2,2-difluorocyclopropane-1-carboxamide], for which the EC50 in assay [1] was found to be 17 nM; in assay [2], 7 nM; in assay [3], 26 nM.
Taken in the same sequence, the figures for `CC(=O)N(C)c1ccc2oc(-c3ccnc(C(=O)N4CCN(C(c5ccccc5)c5nnn(C(F)F)n5)CC4)c3)nc2c1` (racemic) [Compound 113, (R/S)—N-(2-(2-(4-((2-(difluoromethyl)-2H-tetrazol-5-yl)(phenyl)methyl)piperazine-1-carbonyl)pyridin-4-yl)benzo[d]oxazol-5-yl)-N-methylacetamide] were 18 nM, 19 nM and 20 nM.
The like results for `O=C(Nc1ccc2oc(-c3ccnc(C(=O)N4CCN([C@H](c5ccccc5)c5nnn(C(F)F)n5)CC4)c3)nc2c1)[C@@H]1CC1(F)F` [Compound 73, (S)—N-(2-(2-(4-((R)-(2-(difluoromethyl)-2H-tetrazol-5-yl)(phenyl)methyl)piperazine-1-carbonyl)pyridin-4-yl)benzo[d]oxazol-5-yl)-2,2-difluorocyclopropane-1-carboxamide] were, in that order, 6 nM, 2 nM and 3 nM.
The like results for `O=C(Nc1ccc2oc(-c3ccnc(C(=O)N4CCN([C@H](c5ccccc5)c5nnn(C(F)F)n5)CC4)c3)nc2c1)[C@@H]1C[C@@H]1F` [Compound 75, (1S,2S)—N-(2-(2-(4-((R)-(2-(difluoromethyl)-2H-tetrazol-5-yl)(phenyl)methyl)piperazine-1-carbonyl)pyridin-4-yl)benzo[d]oxazol-5-yl)-2-fluorocyclopropane-1-carboxamide] were, in that order, 6 nM, 2 nM and 2 nM.
In the case of `O=C(Nc1ccc2oc(-c3ccnc(C(=O)N4CCN(C(c5ccccc5)c5nnn(C(F)F)n5)CC4)c3)cc2c1)[C@@H]1C[C@@H]1F` (mixture of isomers) [Compound 111, (1S,2S)—N-(2-(2-(4-((R/S)-(2-(difluoromethyl)-2H-tetrazol-5-yl)(phenyl)methyl)piperazine-1-carbonyl)pyridin-4-yl)benzofuran-5-yl)-2-fluorocyclopropane-1-carboxamide], the EC50 was determined as 2 nM in assay [1], 0.5 nM in assay [2] and 2 nM in assay [3].
Consider `O=C(c1cc(-c2nc3cc(-c4cnccn4)ccc3o2)ccn1)N1CCN(C(c2ccccc2)c2nnn(C(F)F)n2)CC1` (racemic) [Compound 112, (R/S)-(4-((2-(difluoromethyl)-2H-tetrazol-5-yl)(phenyl)methyl)piperazin-1-yl)(4-(5-(pyrazin-2-yl)benzo[d]oxazol-2-yl)pyridin-2-yl)methanone], for which the EC50 is 8 nM in assay [1], 11 nM in assay [2] and 36 nM in assay [3].
Taken in the same sequence, the figures for `Cc1nnn(C(c2ccccc2)C2CCN(C(=O)c3cc(-c4nc5cc(NC(=O)[C@@H]6C[C@@H]6F)ccc5o4)ccn3)CC2)n1` (mixture of isomers) [Compound 120, (1S,2S)-2-fluoro-N-(2-(2-(4-((R/S)-(5-methyl-2H-tetrazol-2-yl)(phenyl)methyl)piperidine-1-carbonyl)pyridin-4-yl)benzo[d]oxazol-5-yl)cyclopropanecarboxamide] were 14 nM, 3 nM and 12 nM.
The like results for `Cn1ccnc1-c1ccc2oc(-c3ccnc(C(=O)N4CCN(C(c5ccccc5)c5nnn(C(F)F)n5)CC4)c3)nc2c1` (stereo not drawn) [Compound 72, (4-((2-(difluoromethyl)-2H-tetrazol-5-yl)(phenyl)methyl)piperazin-1-yl)(4-(5-(1-methyl-1H-imidazol-2-yl)benzo[d]oxazol-2-yl)pyridin-2-yl)methanone] were, in that order, 4 nM, 4 nM and 4 nM.
The like results for `Cc1nnn(C(c2ccccc2)C2CCN(C(=O)c3cc(-c4nc5cc(NC(=O)[C@@H]6C[C@@H]6F)ccc5o4)ccn3)CC2)n1` (stereo partly drawn) [Compound 85, (1S,2S)-2-fluoro-N-(2-(2-(4-((5-methyl-2H-tetrazol-2-yl)(phenyl)methyl)piperidine-1-carbonyl)pyridin-4-yl)benzo[d]oxazol-5-yl)cyclopropanecarboxamide] were, in that order, 4 nM, 4 nM and 4 nM.
For the compound `O=C(Nc1ccc2oc(-c3ccnc(C(=O)N4CCN(C(c5ccccc5)c5nnn(C(F)F)n5)CC4)c3)nc2c1)C1CC1` (stereo not drawn) [Compound 36, N-(2-(2-(4-((2-(difluoromethyl)-2H-tetrazol-5-yl)(phenyl)methyl)piperazine-1-carbonyl)pyridin-4-yl)benzo[d]oxazol-5-yl)cyclopropanecarboxamide], the figures for the EC50 in assay [1], in assay [2] and in assay [3] were 10 nM, 4 nM and 17 nM, respectively.
The like results for `O=C(c1cc(-c2nc3cc(-c4cnsc4)ccc3o2)ccn1)N1CCN(C(c2ccccc2)c2nnn(C(F)F)n2)CC1` (racemic) [Compound 101, (R/S)-(4-((2-(difluoromethyl)-2H-tetrazol-5-yl)(phenyl)methyl)piperazin-1-yl)(4-(5-(isothiazol-4-yl)benzo[d]oxazol-2-yl)pyridin-2-yl)methanone] were, in that order, 6 nM, 4 nM and 27 nM.
